Source: ChEMBL document CHEMBL1201862, “PubChem BioAssay data set” (2004)
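Five concentrations, 48 hours, 96-well plates. GI50 marks 50% less growth.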 The source made the active and inactive calls. No stated cut-off is given here; in the data, active = GI50 up to about 1.1 µM and inactive = higher.

Key:
Experiment in all cases: DTP human tumour cell line panel, 48 h
HOP-92 = tested on: HOP-92
EKVX = tested on: EKVX
NCI-H23 = tested on: NCI-H23
SK-MEL-28 = tested on: SK-MEL-28
UACC-257 = tested on: UACC-257
SW-620 = tested on: SW-620
NCI-H522 = tested on: NCI-H522
RPMI-8226 = tested on: RPMI-8226
SNB-75 = tested on: SNB-75
HCC 2998 = tested on: HCC 2998
PC-3 = tested on: PC-3
CAKI-1 = tested on: CAKI-1
Hs-578T = tested on: Hs-578T
SF-268 = tested on: SF-268
ACHN = tested on: ACHN
IGROV-1 = tested on: IGROV-1
CCRF-CEM = tested on: CCRF-CEM
HCT-15 = tested on: HCT-15
KM12 = tested on: KM12
UACC-62 = tested on: UACC-62

Structure (SMILES) | GI50 (HOP-92) | GI50 (EKVX) | GI50 (NCI-H23) | GI50 (SK-MEL-28) | GI50 (UACC-257) | GI50 (SW-620) | GI50 (NCI-H522) | GI50 (RPMI-8226) | GI50 (SNB-75) | GI50 (HCC 2998) | GI50 (PC-3) | GI50 (CAKI-1) | GI50 (Hs-578T) | GI50 (SF-268) | GI50 (ACHN) | GI50 (IGROV-1) | GI50 (CCRF-CEM) | GI50 (HCT-15) | GI50 (KM12) | GI50 (UACC-62)
C=C1[C@@H](C)[C@H]2[C@H](Cc3ccccc3)NC(=O)[C@]23OC(=O)/C=C/[C@H](O)CCC[C@@H](C)C/C=C/[C@H]3[C@@H]1O | 0.436 µM (active) | 10.7 µM (inactive) | 7 µM (inactive) | 12.8 µM (inactive) | 9.62 µM (inactive) | 23.2 µM (inactive) | 9.23 µM (inactive) | 1.82 µM (inactive) | 0.0748 µM (active) | 50 µM (inactive) | 3.76 µM (inactive) | 0.233 µM (active) | 5.89 µM (inactive) | 2.55 µM (inactive) | 4.4 µM (inactive) | 6.59 µM (inactive) | 2.37 µM (inactive) | 0.619 µM | 53.3 µM (inactive) | 22.8 µM (inactive)
CNN1C(=O)c2c(N)c(C#N)c(-c3ccccc3)c(-c3ccccc3)c2C1=O | > 100 µM (inactive) | > 100 µM (inactive) | – | > 100 µM (inactive) | > 100 µM (inactive) | > 100 µM (inactive) | 84.1 µM (inactive) | 24.7 µM (inactive) | 83.4 µM (inactive) | > 100 µM (inactive) | 55.6 µM (inactive) | > 100 µM (inactive) | 70.1 µM (inactive) | > 100 µM (inactive) | > 100 µM (inactive) | 48.9 µM (inactive) | 41.1 µM (inactive) | > 100 µM | 86.9 µM (inactive) | > 100 µM (inactive)
NC(=O)c1c[se]c(C2OC(CO)C(O)C2O)n1 (centres undefined) | > 100 µM (inactive) | > 79.1 µM (inactive) | 11 µM (inactive) | 2.61 µM (inactive) | > 100 µM (inactive) | 1.47 µM (inactive) | 6.25 µM (inactive) | 6.43 µM (inactive) | > 59 µM (inactive) | 32.4 µM (inactive) | 1.44 µM (inactive) | 6.93 µM (inactive) | > 100 µM (inactive) | 6.84 µM (inactive) | 5.94 µM (inactive) | 4.98 µM (inactive) | 0.875 µM (active) | 0.537 µM | 0.57 µM (active) | 12.3 µM (inactive)
Clc1ccc(C2=Cc3nc2c(-c2ccccc2)c2ccc([nH]2)c(-c2ccccc2)c2nc(c(-c4ccccc4)c4ccc([nH]4)c3-c3ccccc3)C=C2)cc1 | 61 µM (inactive) | > 62.5 µM (inactive) | > 62.5 µM (inactive) | > 62.5 µM (inactive) | > 62.5 µM (inactive) | > 62.5 µM (inactive) | > 62.5 µM (inactive) | > 62.5 µM (inactive) | 32.9 µM (inactive) | > 62.5 µM (inactive) | > 62.5 µM (inactive) | 13.9 µM (inactive) | > 62.5 µM (inactive) | > 62.5 µM (inactive) | > 62.5 µM (inactive) | > 62.5 µM (inactive) | > 62.5 µM (inactive) | > 62.5 µM | > 62.5 µM (inactive) | > 62.5 µM (inactive)
CC1=CC(O)C(C(O)(C(F)(F)F)C(F)(F)F)C(C)(C)C1 (centres undefined) | > 10 µM (inactive) | > 10 µM (inactive) | > 10 µM (inactive) | > 10 µM (inactive) | > 10 µM (inactive) | > 10 µM (inactive) | > 10 µM (inactive) | > 10 µM (inactive) | > 10 µM (inactive) | > 10 µM (inactive) | > 10 µM (inactive) | > 10 µM (inactive) | > 10 µM (inactive) | > 10 µM (inactive) | > 10 µM (inactive) | 0.188 µM (active) | > 10 µM (inactive) | > 10 µM | > 10 µM (inactive) | > 10 µM (inactive)
